Entries after “also recorded” stand apart in the source; their conditions may differ.
How the values were obtained:
[1] = system: C-33-A cells (FBXW7 mutation); assay: Dose-response assay in cervical cancer cell line panel (Ca-Ski, DoTc2-4510, SiHa, C-33-A); format: cell-based
Procedure: (§1) HPAF-II, C33A, SiHa HEK293T cells (ATCC) were grown in DMEM (4.6 g/L D-glucose, L-glutamine)+10% fetal bovine serum+5% Anti-Anti at 37° C. and 5% CO2. Caski cells were grown in RPMI-1640+10% fetal bovine serum+5% Anti-Anti at 37° C. and 5% CO2. For serum starvation, regular growth media was removed, and replaced with DMEM (4.6 g/L D-glucose, L-glutamine)+5% Anti-Anti for 18 h. CHIR99021 was used at 4 nM.
(§2) All cells were seeded in triplicate at 2500 cells/well. The following day, a dose-response treatment of OTS964 (Cayman Chemicals) or AZD6738 (SelleckChem). At 3d and 7d of treatment, respectively cell viability was determined using CellTiter-Glo (Promega) as per manufacturer's instructions.

wildtype HPAF-II cells = assay: Dose-response assay (CellTiter-Glo), wildtype HPAF-II cells; format: cell-based; conditions: FIG. 9
Procedure: as §1, §2

[2] = system: Cervical cancer patient-derived cancer organoids; assay: Viability of patient-derived cervical cancer organoids (Cell Titer Glo); conditions: 7 days treatment, a subset of organoid models, FIGS. 10 and 11
Procedure: Cervical cancer patient-derived cancer organoids were treated with dose-response of OTS964 for 7 days. Following treatment, organoids were imaged, and viability was measured using Cell Titer Glo.

FBXW7^−/− HPAF-II cells = assay: Dose-response assay (CellTiter-Glo), FBXW7 knockout HPAF-II cells compared with wildtype; format: cell-based
Procedure: as §1
(§3) HPAF-II mutant cells (APC-truncation, AXIN-knockout, FBXW7-knockout) were transfected via electroporation using the Neon system (Thermo) under the following conditions; 2 μg of DNA (sgRNA construct pX330) 1150V, 30 ms and 2 pulses. Cells were allowed to recover for 2 days before the addition of 100 nM LGK-974 to enrich for mutations driving Wnt pathway activation. Cell lines were validated for editing using TIDE (tracking of insertions and deletions (Brinkman et al 2014).
as §2

CCNL1 = assay: Western blot of CCNL1 levels after GSK3 inhibitor treatment; format: cell-based; conditions: CHIR99021 used at 4 nM, FIG. 6
Procedure: Using the methods of Example 8, a co-expression analysis followed by cycloheximide chase illustrated the effect of FBXW7 expression on CCNL1 stability. […] Mutation in the substrate-recognition domain of FBXW7 lead to a robust stabilization of CCNL1 levels.
as §1
All samples were lysed in 4× Laemmli Sample Buffer (50 mM Tris-HCl pH 6.8, 2% SDS, 10% glycerol, 1% β-mercaptoethanol, 12.5 mM EDTA, 0.02% bromophenol blue). Lysates were sonicated, boiled, and centrifuged to pellet insoluble material. Approx 10 μg were loaded per sample on a 4-15% SDS-PAGE Stain-Free TGX BioRad precast gel. Gels were run at 150V for approximately 60 minutes. Gels were transferred to methanol-activated PVDF at 90V for 120 minutes. Membranes were blocked in 5% milk in Tris-buffered Saline (pH 7.4)+1% Tween-20 (TBS-T) for 1 hr, and incubated with corresponding primary antibodies overnight. […]

HPAF-II cells [3] = assay: LGK974 treatment of RNF43 mutant HPAF-II cells (proliferation, LD90 dose for CRISPR screen); format: cell-based
Excerpt: HPAF-II cells harbor a mutation in RNF43 a negative regulator of the Wnt signaling pathway and as a result these cells are exquisitely dependent on the presence of Wnt ligands. […] Genome wide CRISPR-Cas9 screen was used to identify genes underlying PORCN inhibitor sensitivity, specifically, gene knockouts mediating LGK974 resistance. To do this, the RNF43 mutant cell line HPAF-II was transduced with the genome-wide TKO gRNA library and treated with a LD90 dose of the PORCN inhibitor LGK974 (Liu et al 2013). Under these conditions, the vast majority of cells undergo cell cycle arrest, but a few clones bypassed this process and emerged during the selection. Next generation sequencing of the resistant clones identified gRNA targeting several known negative regulators of Wnt signalling—including APC and AXIN1 that re-activated the ßcatenin pathway distal to the receptor complex. […]
HPAF-II cells were infected with the Toronto knockout library version 1 (TKOv1)—a pooled sgRNA lentiviral library (Hart et al2015) at a multiplicity of infection of 0.3, in the presence of 8 μg/ml polybrene (Sigma) for 24 h. […] Sequenced gRNAs were mapped to the TKOv1 library using MaGECK 0.5.3, and read counts were normalized by total reads per sample before averaging biological replicates and determining gRNA enrichment.

HPAF-II cells [4] = assay: Clonogenic assay of LGK974 sensitivity in HPAF-II wild type and knockout cells; format: cell-based
Procedure: As validation, each of the genes discovered in this LGK974 positive selection screen were knocked-out in HPAF-II cells and the sensitivity to LGK974 was determined using clonogenic assays. The assay tested HPAF-II wild type cells, HPAF-II wild type cells treated with LGK974, HPAF-II cells with the gene APC knocked out and treated with LGK974, HPAF-II cells expressing a degradation resistant mutant (DegR)-ßCatenin and treated with LGK974, HPAF-II cells with the AXIN gene knocked out and treated with LGK974, and HPAF-II cells with the FBXW7 gene knocked out and treated with LGK974.
as §3

Structure (SMILES): Cc1cc(O)c(-c2ccc([C@@H](C)CN(C)C)cc2)c2c1[nH]c(=O)c1sccc12 [OTS964, 9-[4-[(1R)-2-(dimethylamino)-1-methylethyl]phenyl]-8-hydroxy-6-methyl-thieno[2,3-c]quinolin-4(5H)-one]
- OTS964 dose response in cervical cancer cell line panel ([1]; C-33-A vs Ca-Ski, DoTc2-4510, SiHa, FIG. 14A): hypersensitive
- dose at which inhibition in wildtype cells was seen (only at the highest dose tested) (wildtype HPAF-II cells): 1 µM
- relative viability of cervical cancer organoids under OTS964 [2]: sensitive
- sensitivity of FBXW7 mutant cells to CDK11 inhibition relative to wildtype (FBXW7^−/− HPAF-II cells; FBXW7^−/− vs wildtype HPAF-II cells, proliferation, FIG. 9): at least 5 times
- proliferation response to OTS964, FBXW7 knockout vs wild type cells (FBXW7^−/− HPAF-II cells; HPAF-II, 3d treatment, FIG. 9): striking increase in sensitivity; also recorded: hypersensitive

Structure (SMILES): C[C@@H]1COCCN1c1cc(C2([S@](C)(=N)=O)CC2)nc(-c2ccnc3[nH]ccc23)n1 [AZD6738, (R)-imino(methyl)(1-(6-((R)-3-methylmorpholino)-2-(1H-pyrrolo[2,3-b]pyridin-4-yl)pyrimidin-4-yl)cyclopropyl)-I6-sulfanone]
- enhanced activity in C33A compared to Caski and SiHa cell lines ([1]; AZD6738, FIG. 15D): 4-6 fold
- cell viability under AZD6738 in cervical cancer cell line panel ([1]; C33A, FIG. 15D): highest susceptibility; also recorded: highly susceptible
- cell viability under AZD6738, FBXW7^−/− vs wildtype HPAF-II (FBXW7^−/− HPAF-II cells; 7d treatment, FIG. 15B): much more susceptible; also recorded: hypersensitivity

Structure (SMILES): Cc1c[nH]c(-c2cnc(NCCNc3ccc(C#N)cn3)nc2-c2ccc(Cl)cc2Cl)n1 [CHIR99021]
- CCNL1 levels after treatment with GSK3 inhibitor (CCNL1): increased levels of CCNL1

Structure (SMILES): Cc1cc(-c2ncc(CC(=O)Nc3ccc(-c4cnccn4)cn3)cc2C)ccn1 [LGK974]
- LD90 dose (HPAF-II cells [3]; HPAF-II cells, positive selection screen): 20 nM
- effect of LGK974 treatment on HPAF-II cells (HPAF-II cells [3]; RNF43 mutant HPAF-II): cell cycle arrest and strong inhibition of proliferation
- growth under LGK974 after knockout of APC and AXIN1 (HPAF-II cells [4]; APC and AXIN1 knockout HPAF-II): fully rescued the growth
- resistance to LGK974 after knockout of FBXW7 (HPAF-II cells [4]; FBXW7 knockout HPAF-II): partial resistance
- growth of HPAF-II wildtype cells under LGK974 (HPAF-II cells [4]; wildtype (RNF43 mutation)): robustly arrested the growth
